molecular target: T1, human CYP3A4 (Homo sapiens, UniProt P08684); experiment: Time-dependent inhibition assay (IC50 shift), liver microsomes; type: in vitro ADME; conditions: 8 concentrations 0 to 10 μmol/L, 30 min pre-incubation; 3 μmol/L midazolam and 15.6 μmol/L testosterone probes
T1 construct: human CYP3A4 using liver microsomes (0.1 mg/mL); from tissue; host or cells: liver microsomes
Method: One of these approaches uses multiple test compound concentrations at a single incubation time, e.g. the “IC50 shift” approach. In an IC50 shift experiment, the IC50 is determined for a CYP marker activity before and after the test compound has been incubated with enzyme and the co-factor nicotinamide adenine dinucleotide phosphate (NADPH) for a set preincubation time (Grimm et al, 2009).
The IC50 shift approach was used to determine whether compounds are time-dependent inhibitors of human CYP3A4 using liver microsomes (0.1 mg/mL). A 30-minute pre-incubation time point was selected, where compounds (9 concentrations, 0 to 30 μmol/L) are incubated at 37° C. in presence and absence of 1 mmol/L NADPH. Following the pre-incubation period, 5 μmol/L midazolam (the probe substrate) was added and formation of hydroxymidazolam was measured by high-performance liquid chromatography-mass spectrometry (LC-MS/MS) analysis following a 5 minute incubation period. Any decrease in the formation of hydroxymidazolam, in peak area ratios to vehicle control, was used to calculate three IC50 values (0 min pre-incubation, 30 min pre-incubation with NADPH, and 30 min pre-incubation without NADPH). […] Assays were performed in duplicate, and mifepristone was used as positive control. In Table 3, “Yes” indicates a TDI shift greater than or equal to 3. “No” indicates a TDI shift greater than or equal to 1 and less than 3.
The IC50 shift approach was also used to determine whether Compound 69 of PCT International Application Publication No. WO/2016/196346 is a time-dependent inhibitor of human CYP3A4 using liver microsomes. Similar to the experimental design described above, a 30-minute pre-incubation time point was selected. Minor variations to the method described above were that Compound 69 of PCT International Application Publication No. WO/2016/196346 was tested at 8 concentrations (0 to 10 μmol/L). Following the pre-incubation period, 3 μmol/L midazolam was added and formation of hydroxymidazolam was measured following a 2 minute incubation period. Since under these experimental conditions, the formation of hydroxymidazolam followed first order kinetics (considered as a linear process), these changes in assay design are not expected to impact the IC50 determinations. In parallel, the IC50 shift assay was also performed with 15.6 μmol/L testosterone (0.05 mg/mL liver microsomes, 10 minute incubation) as second probe substrate. Assays for both probe substrates were performed in triplicate, and mifepristone was used as positive control.

T1 sequence (P08684 whole entry): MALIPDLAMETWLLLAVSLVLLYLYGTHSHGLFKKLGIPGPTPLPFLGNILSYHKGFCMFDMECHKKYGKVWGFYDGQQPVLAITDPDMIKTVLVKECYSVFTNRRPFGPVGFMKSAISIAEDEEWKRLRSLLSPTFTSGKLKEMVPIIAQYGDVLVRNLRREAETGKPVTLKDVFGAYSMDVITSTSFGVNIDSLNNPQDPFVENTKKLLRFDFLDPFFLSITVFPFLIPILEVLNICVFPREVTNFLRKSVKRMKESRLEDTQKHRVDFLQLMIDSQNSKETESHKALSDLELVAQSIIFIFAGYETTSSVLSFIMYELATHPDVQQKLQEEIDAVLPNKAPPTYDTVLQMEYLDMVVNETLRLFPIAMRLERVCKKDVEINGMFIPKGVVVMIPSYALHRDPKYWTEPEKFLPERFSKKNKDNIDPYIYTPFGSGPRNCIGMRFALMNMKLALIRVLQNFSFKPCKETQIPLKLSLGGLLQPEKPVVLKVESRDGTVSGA

| SMILES | CYP3A4 TDI shift |
| --- | --- |
| CN(C)C(=O)/C=C/CNCCOc1ccc(/C(=C(/CC(F)(F)F)c2ccccc2)c2ccc3[nH]nc(F)c3c2)cc1 [reference compound] | greater than 3 |

same assay, conditions: IC50 shift; human liver microsomes, 30 min pre-incubation, midazolam probe

| SMILES | CYP3A4 TDI |
| --- | --- |
| Cl.O=C(/C=C/CNCCOc1ccc(/C(=C(/CC(F)(F)F)c2ccccc2)c2ccc3[nH]nc(F)c3c2)cn1)N1CCCC1 [Compound 15] | No (“No” indicates a TDI shift greater than or equal to 1 and less than 3) |
| CNC(=O)/C=C/CNCCOc1ccc(/C(=C(/CC(F)(F)F)c2ccccc2)c2ccc3[nH]ncc3c2)cn1 [Compound 9, (E)-N-methyl-4-((2-((5-((Z)-4,4,4-trifluoro-1-(1H-indazol-5-yl)-2-phenylbut-1-en-1-yl)pyridin-2-yl)oxy)ethyl)amino)but-2-enamide] | Yes (“Yes” indicates a TDI shift greater than or equal to 3) |
| CNC(=O)/C=C/CNCCOc1ccc(/C(=C(\c2ccccc2)C2CCC2)c2ccc3[nH]nc(F)c3c2)cn1.Cl [Compound 32] | Yes (“Yes” indicates a TDI shift greater than or equal to 3) |
| O=C(/C=C/CNCCOc1ccc(/C(=C(/CC(F)(F)F)c2ccccc2)c2ccc3[nH]nc(F)c3c2)cn1)NCCO [Compound 7, (E)-N-(2-hydroxyethyl)-4-((2-((5-((Z)-4,4,4-trifluoro-1-(3-fluoro-1H-indazol-5-yl)-2-phenylbut-1-en-1-yl)pyridin-2-yl)oxy)ethyl)amino)but-2-enamide] | No (“No” indicates a TDI shift greater than or equal to 1 and less than 3) |
| CNC(=O)/C=C/CNCCOc1ccc(/C(=C(/CC(F)(F)F)c2ccccc2)c2ccc3[nH]ncc3c2)cc1 [Compound 10, (E)-N-methyl-4-((2-(4-((E)-4,4,4-trifluoro-1-(1H-indazol-5-yl)-2-phenylbut-1-en-1-yl)phenoxy)ethyl)amino)but-2-enamide] | Yes (“Yes” indicates a TDI shift greater than or equal to 3) |
| CNC(=O)CCCNCCOc1ccc(/C(=C(/CC(F)(F)F)c2ccccc2)c2ccc3[nH]nc(F)c3c2)cc1.Cl [Compound 39, (E)-N-methyl-4-((2-(4-(4,4,4-trifluoro-1-(3-fluoro-1H-Indazol-5-yl)-2-phenylbut-1-en-1-yl)phenoxy)ethyl)amino)butanamide] | No (“No” indicates a TDI shift greater than or equal to 1 and less than 3) |
| Cl.NC(=O)/C=C/CNCCOc1ccc(/C(=C(/CC(F)(F)F)c2ccccc2)c2ccc3[nH]nc(F)c3c2)cn1 [Compound 56, (E)-4-((2-((5-((Z)-4,4,4-trifluoro-1-(3-fluoro-1H-indazol-5-yl)-2-phenylbut-1-en-1-yl)pyridin-2-yl)oxy)ethyl)amino)but-2-enamide] | No (“No” indicates a TDI shift greater than or equal to 1 and less than 3) |
| O=C(/C=C/CNCCOc1ccc(/C(=C(\c2ccccc2)C2CCC2)c2ccc3[nH]ncc3c2)cn1)N1CCCC1 [Compound 37] | Yes (“Yes” indicates a TDI shift greater than or equal to 3) |
| CC/C(=C(/c1ccc(OCCNC/C=C/C(=O)NC)nc1)c1ccc2[nH]ncc2c1)c1ccc(F)cc1Cl.Cl [Compound 59, (E)-4-((2-((5-((Z)-2-(2-chloro-4-fluorophenyl)-1-(1H-indazol-5-yl)but-1-en-1-yl)pyridin-2-yl)oxy)ethyl)amino)-N-methylbut-2-enamide] | Yes (“Yes” indicates a TDI shift greater than or equal to 3) |
| O=C(/C=C/CNCCOc1ccc(/C(=C(\c2ccccc2)C2CCC2)c2ccc3[nH]nc(F)c3c2)cc1)N1CCCC1 [Compound 34] | Yes (“Yes” indicates a TDI shift greater than or equal to 3) |
| Cl.O=C(/C=C/CNCCOc1ccc(/C(=C(/CC(F)(F)F)c2ccccc2)c2ccc3[nH]ncc3c2)cn1)N1CCCC1 [Compound 16, (E)-1-(pyrrolidin-1-yl)-4-((2-((5-((Z)-4,4,4-trifluoro-1-(1H-indazol-5-yl)-2-phenylbut-1-en-1-yl)pyridin-2-yl)oxy)ethyl)amino)but-2-en-1-one] | Yes (“Yes” indicates a TDI shift greater than or equal to 3) |
| CC/C(=C(/c1ccc(OCCNC/C=C/C(=O)N2CCCC2)cc1)c1ccc2[nH]nc(F)c2c1)c1ccccc1.Cl [Compound 29, (E)-4-((2-(4-((E)-1-(3-fluoro-1H-indazol-5-yl)-2-phenylbut-1-en-1-yl)phenoxy)ethyl)amino)-1-(pyrrolidin-1-yl)but-2-en-1-one] | No (“No” indicates a TDI shift greater than or equal to 1 and less than 3) |
| CNC(=O)/C=C/CNCCOc1ccc(/C(=C(\c2ccccc2)C2CCC2)c2ccc3[nH]ncc3c2)cn1.Cl [Compound 33, (E)-4-((2-((5-((Z)-2-cyclobutyl-1-(1H-indazol-5-yl)-2-phenylvinyl)pyridin-2-yl)oxy)ethyl)amino)-N-methylbut-2-enamide] | Yes (“Yes” indicates a TDI shift greater than or equal to 3) |
| Cl.NC(=O)/C=C/CNCCOc1ccc(/C(=C(/CC(F)(F)F)c2ccccc2)c2ccc3[nH]nc(F)c3c2)cc1 [Compound 57, (E)-4-((2-(4-((E)-4,4,4-trifluoro-1-(3-fluoro-1H-indazol-5-yl)-2-phenylbut-1-en-1-yl)phenoxy)ethyl)amino)but-2-enamide] | No (“No” indicates a TDI shift greater than or equal to 1 and less than 3) |
| CN(C)C(=O)CCCNCCOc1ccc(/C(=C(/CC(F)(F)F)c2ccccc2)c2ccc3[nH]nc(F)c3c2)cn1 [Compound 2, (Z)-N,N-dimethyl-4-((2-((5-(4,4,4-trifluoro-1-(3-fluoro-1H-indazol-5-yl)-2-phenylbut-1-en-1-yl)pyridin-2-yl)oxy)ethyl)amino)butanamide] | Yes (“Yes” indicates a TDI shift greater than or equal to 3) |
| CC/C(=C(/c1ccc(OCCNC/C=C/C(=O)NC)cc1)c1ccc2[nH]nc(F)c2c1)c1ccccc1.Cl [Compound 26, (E)-4-((2-(4-((E)-1-(3-fluoro-1H-indazol-5-yl)-2-phenylbut-1-en-1-yl)phenoxy)ethyl)amino)-N-methylbut-2-enamide] | No (“No” indicates a TDI shift greater than or equal to 1 and less than 3) |
| O=C(/C=C/CNCCOc1ccc(/C(=C(/CC(F)(F)F)c2ccccc2)c2ccc3[nH]nc(F)c3c2)cn1)N1CCC1 [Compound 60, (E)-1-(azetidin-1-yl)-4-((2-((5-((Z)-4,4,4-trifluoro-1-(3-fluoro-1H-indazol-5-yl)-2-phenylbut-1-en-1-yl)pyridin-2-yl)oxy)ethyl)amino)but-2-en-1-one] | No (“No” indicates a TDI shift greater than or equal to 1 and less than 3) |
| CNC(=O)/C=C/CNCCOc1ccc(/C(=C(/CC(F)(F)F)c2ccccc2)c2ccc3[nH]nc(F)c3c2)c(C)n1.Cl [Compound 44] | Yes (“Yes” indicates a TDI shift greater than or equal to 3) |
| CNC(=O)CCCNCCOc1ccc(/C(=C(/CC(F)(F)F)c2ccccc2)c2ccc3[nH]ncc3c2)cn1.Cl [Compound 40, (Z)—N-methyl-4-((2-((5-(4,4,4-trifluoro-1-(1H-indazol-5-yl)-2-phenylbut-1-en-1-yl)pyridin-2-yl)oxy)ethyl)amino)butanamide] | Yes (“Yes” indicates a TDI shift greater than or equal to 3) |
| CNC(=O)/C=C/CNCCOc1ccc(/C(=C(\c2ccccc2)C2CCC2)c2ccc3[nH]nc(F)c3c2)cc1.Cl [Compound 31, (E)-4-((2-(4-((E)-2-cyclobutyl-1-(3-fluoro-1H-indazol-5-yl)-2-phenylvinyl)phenoxy)ethyl)amino)-N-methylbut-2-enamide] | Yes (“Yes” indicates a TDI shift greater than or equal to 3) |
| Cl.O=C(/C=C/CNCCOc1ccc(/C(=C(\c2ccccc2)C2CCC2)c2ccc3[nH]nc(F)c3c2)cn1)N1CCCC1 [Compound 36, (E)-4-((2-((5-((Z)-2-cyclobutyl-1-(3-fluoro-1H-indazol-5-yl)-2-phenylvinyl)pyridin-2-yl)oxy)ethyl)amino)-1-(pyrrolidin-1-yl)but-2-en-1-one] | Yes (“Yes” indicates a TDI shift greater than or equal to 3) |
| Cl.O=C(/C=C/CNCCOc1ccc(/C(=C(/CC(F)(F)F)c2ccccc2)c2ccc3[nH]nc(F)c3c2)cc1)N1CCOCC1 [Compound 17] | No (“No” indicates a TDI shift greater than or equal to 1 and less than 3) |
| O=C(/C=C/CNCCOc1ccc(/C(=C(/CC(F)(F)F)c2ccccc2)c2ccc3[nH]nc(F)c3c2)cn1)N1CCCCC1 [Compound 55] | Yes (“Yes” indicates a TDI shift greater than or equal to 3) |

— patent US20200255415A1, “TETRASUBSTITUTED ALKENE COMPOUNDS AND THEIR USE FOR THE TREATMENT OF BREAST CANCER” (Eisai R&D Management Co., Ltd., priority 2016, published 2020)
